These results are taken from patent US7902237B2, “Heterocyclic compounds as pharmaceutical agents” (Exelixis, Inc., priority 2004, dated 2011).

Like-named read-outs stand apart in the source and are kept apart here. Some results are limits rather than exact numbers.

For experiment [1], the target named is T1, full length human farnesoid X receptor (Homo sapiens, UniProt Q96RI1).
T1 construct: CMX-farnesoid X receptor (full length human farnesoid X receptor); expressed in transfected cells; host or cells: CV-1 African Green Monkey Kidney cells
T1 sequence (Q96RI1 1-472 isoform Q96RI1-2): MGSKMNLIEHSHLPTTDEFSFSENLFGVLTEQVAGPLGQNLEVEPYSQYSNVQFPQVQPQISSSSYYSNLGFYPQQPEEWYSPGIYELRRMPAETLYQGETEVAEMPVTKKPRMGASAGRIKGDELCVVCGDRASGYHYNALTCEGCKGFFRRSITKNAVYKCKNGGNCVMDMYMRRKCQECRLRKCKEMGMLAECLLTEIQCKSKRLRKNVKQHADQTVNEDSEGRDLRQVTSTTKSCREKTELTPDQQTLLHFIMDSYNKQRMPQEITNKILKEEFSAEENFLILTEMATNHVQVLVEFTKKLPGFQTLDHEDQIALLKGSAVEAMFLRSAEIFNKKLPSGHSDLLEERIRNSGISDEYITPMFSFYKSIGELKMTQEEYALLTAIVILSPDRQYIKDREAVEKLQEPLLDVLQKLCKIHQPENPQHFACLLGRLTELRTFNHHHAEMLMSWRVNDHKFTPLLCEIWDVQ
T1 sequence (P19793 1-462 partner): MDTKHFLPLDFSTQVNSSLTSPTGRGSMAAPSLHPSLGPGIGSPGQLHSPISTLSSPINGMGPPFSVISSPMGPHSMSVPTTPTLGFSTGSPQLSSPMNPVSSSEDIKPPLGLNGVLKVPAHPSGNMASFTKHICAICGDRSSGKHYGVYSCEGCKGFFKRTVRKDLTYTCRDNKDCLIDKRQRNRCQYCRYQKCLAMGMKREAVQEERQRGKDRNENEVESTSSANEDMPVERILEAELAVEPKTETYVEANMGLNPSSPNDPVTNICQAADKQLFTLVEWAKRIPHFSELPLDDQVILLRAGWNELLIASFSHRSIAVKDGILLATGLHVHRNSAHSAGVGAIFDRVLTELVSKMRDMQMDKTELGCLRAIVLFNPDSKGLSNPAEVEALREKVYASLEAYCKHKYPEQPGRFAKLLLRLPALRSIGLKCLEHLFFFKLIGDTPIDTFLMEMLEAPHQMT
Kind of experiment: farnesoid X receptor/ECREx7 co-transfection assay. The experiment is classed as cell-based. To be noted: for EC50: CV-1 cells; for Emax: agonist efficacy relative to chenodeoxycholic acid (CDCA) maximum response. On the procedure: (§1) The basic co-transfection protocol for measuring the farnesoid X receptor activity is as follows. CV-1 African Green Monkey Kidney cells were plated 24 hours before transfection to achieve approximately 70-80 percent confluency. Cells were transfected with the following expression vectors, CMX-farnesoid X receptor (full length human farnesoid X receptor), CMX-7RXRα (full length human RXR), Luc12 (ECREx7-Tk-Luciferase) luciferase reporter gene construct. (See WO 00/76523, Venkateswaran et al., (2000) J. Biol. Chem. 275 14700-14707). A CMX-β-Galactosidase expression vector was used as a transfection control. The transfection reagent used was DOTAP (Boehringer Mannheim). Cells were incubated with the DOTAP/DNA mixture for 5 hours after which the cells were harvested and plated onto either 96 well or 384 well plates containing the appropriate concentration of test compound. The assay was allowed to continue for an additional 18-20 hours, after which the cells were lysed, with lysis buffer (1% triton X 100, 10% glycerol, 5 mM Dithiothreitol, 1 mM EGTA, 25 mM Tricine, pH 7.8) and the luciferase activity measured in the presence of Luciferase assay buffer (0.73 mM ATP, 22.3 mM Tricine, 0.11 mM EGTA, 0.55 mM Luciferin, 0.15 mM Coenzyme A, 0.5 mM HEPES, 10 mM Magnesium sulphate) on a standard luminomter plate reader (PE Biosystems, NorthStar Reader), using recommended operating instructions and conditions
(§2) Both the farnesoid X receptor/ECREx7 co-transfection assay (Example 9) and the TR-FRET assay (Example 8) can be used to establish the EC50/IC50 values for potency and percent activity or inhibition for efficacy. Efficacy defines the activity of a compound relative to a high control (chenodeoxycholic acid, CDCA) or a low control (DMSO/vehicle). The dose response curves are generated from an 8 point curve with concentrations differing by ½ LOG units. Each point represents the average of 4 wells of data from a 384 well plate. The curve for the data is generated by using the equation: Y=Bottom+(Top−Bottom)/(1+10^((Log EC50−X)*HillSlope))
The EC50/IC50 is therefore defined as the concentration at which an agonist or antagonist elicits a response that is half way between the Top (maximum) and Bottom (baseline) values. The EC50/IC50 values represented are the averages of at least 3 independent experiments. The determination of the relative efficacy or % control for an agonist is by comparison to the maximum response achieved by chenodeoxycholic acid that is measured individually in each dose response experiment. […]

The target in experiment [2] is T2, farnesoid X receptor (Homo sapiens, UniProt Q96RI1).
T2 sequence (Q96RI1 258-485): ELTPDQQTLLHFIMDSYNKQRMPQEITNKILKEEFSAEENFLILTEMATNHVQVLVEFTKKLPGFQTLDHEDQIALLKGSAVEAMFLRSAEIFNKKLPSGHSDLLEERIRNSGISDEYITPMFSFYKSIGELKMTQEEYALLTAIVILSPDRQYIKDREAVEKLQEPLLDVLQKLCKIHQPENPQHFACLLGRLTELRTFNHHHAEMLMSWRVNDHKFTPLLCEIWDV
Nature of the experiment: one or more of the in vitro assays described herein (TR-FRET assay and/or co-transfection assay). The following applies: for Emax: agonist efficacy relative to CDCA, read-out: efficacy (first value, goes with EC50); for IC50: antagonist mode against CDCA, read-out: IC50 (apparent partial agonist activity); for EC50: read-out: EC50 (apparent partial agonist activity). The protocol:
The TR-FRET assay was performed by incubating 8 nM of GST-farnesoid X receptor-LBD (comprising […] fused in frame to the farnesoid X receptor ligand binding domain, (amino acids 244-471 of the human farnesoid X receptor)), 8 nM of Europium-labeled anti-GST antibody (Wallac/PE Life Sciences Cat#AD0064), 16 nM biotin-SRC-1 peptide [5′-biotin-[…]-CONH2], 20 nM APC-SA [allophycocyanin conjugated streptavidin] (Wallac/PE Life Sciences, Cat# AD0059A) in FRET assay buffer (20 mM KH2PO4/K2HPO4 (pH 7.3), 150 mM NaCl, 2 mM CHAPS, 2 mM EDTA, 1 mM DTT) in the presence of the test compound(s) for 2-4 hours at room temperature in a 384 well assay plate. Data was collected using an LJL Analyst using the standard operating instructions and conditions with readings at emission wavelengths of 615 nm and 665 nm after a delay of 65 μs and an excitation wavelength of 330 nm.
as §1, §2
The EC50/IC50 is therefore defined as the concentration at which an agonist or antagonist elicits a response that is half way between the Top (maximum) and Bottom (baseline) values. The EC50/IC50 values represented are the averages of at least 3 independent experiments. The determination of the relative efficacy or % control for an agonist is by comparison to the maximum response achieved by chenodeoxycholic acid that is measured individually in each dose response experiment.
For the antagonist assay, CDCA is added to each well of a 384 well plate to elicit a response. The % inhibition for each antagonist is therefore a measurement of the inhibition of the activity of CDCA. In this example, 100% inhibition would indicate that the activity of CDCA has been reduced to baseline levels, defined as the activity of the assay in the presence of DMSO only.

[3] abbreviates: read-out: agonist activity EC50.

For the molecule `CCNc1ccc(C#N)cc1/N=C1\S/C(=C\N2CCc3ccccc32)C(=O)N1Cc1ccccc1` [No. 5, 3-{[(2Z,5Z)-5-(2,3-dihydro-1H-indol-1-ylmethylidene)-4-oxo-3-(phenylmethyl)-1,3-thiazolidin-2-ylidene]amino}-4-(ethylamino)benzonitrile], in experiment [1] (read-out: agonist activity), the EC50 is less than 200 nM. Also, in experiment [1], the Emax was no less than 100%.
Regarding `CCNc1ccc(C(C)=O)cc1/N=C1\S/C(=C\N(C)CCc2ccccc2)C(=O)N1Cc1ccccc1` [No. 19, (2Z,5Z)-2-{[5-acetyl-2-(ethylamino)phenyl]imino}-5-{[methyl(2-phenylethyl)amino]methylidene}-3-(phenylmethyl)-1,3-thiazolidin-4-one], the EC50 in experiment [1] (setting [3]) was no more than 1000 nM. This molecule also gave an Emax in experiment [1] of 50 to 100%.
Regarding `CCNc1ccc(C(C)=O)cc1/N=C1\S/C(=C\N2CCc3ccccc32)C(=O)N1Cc1ccccc1` [No. 6, (2Z,5Z)-2-{[5-acetyl-2-(ethylamino)phenyl]imino}-5-(2,3-dihydro-1H-indol-1-ylmethylidene)-3-(phenylmethyl)-1,3-thiazolidin-4-one], in experiment [1] (read-out: agonist activity), the EC50 was less than 100 nM. Also, in experiment [1], the Emax was greater than 100%.
Regarding `CC(=O)c1cccc(/N=C2\S/C(=C\N3CCc4ccccc43)C(=O)N2Cc2ccco2)c1` [No. 7, (2Z,5Z)-2-[(3-acetylphenyl)imino]-5-(2,3-dihydro-1H-indol-1-ylmethylidene)-3-(furan-2-ylmethyl)-1,3-thiazolidin-4-one], the EC50 in experiment [1] (setting [3]) is no more than 1000 nM. Moreover, the Emax in experiment [1] fell in the range of 50 to 100%.
For `CCNc1ccc(C(C)=O)cc1/N=C1\S/C(=C\N(C)c2cccc(OC)c2)C(=O)N1Cc1ccccc1` [No. 15, (2Z,5Z)-2-{[5-acetyl-2-(ethylamino)phenyl]imino}-5-({methyl[3-(methyloxy)phenyl]amino}methylidene)-3-(phenylmethyl)-1,3-thiazolidin-4-one], in experiment [1] (read-out: agonist activity), the EC50 is less than 200 nM. Besides, the Emax in experiment [1] is no less than 100%.
Consider `CCNc1ccc(C(C)=O)cc1/N=C1\S/C(=C\c2ccco2)C(=O)N1Cc1ccccc1` [No. 24, (2Z,5Z)-2-{[5-acetyl-2-(ethylamino)phenyl]imino}-5-(furan-2-ylmethylidene)-3-(phenylmethyl)-1,3-thiazolidin-4-one], for which the EC50 in experiment [1] (setting [3]) is no more than 1000 nM. This molecule also came in with an Emax in experiment [1] of 50 to 100%.
Take `CC(=O)Nc1ccc(/N=C2\S/C(=C\N3CCc4ccccc43)C(=O)N2Cc2ccco2)cc1` [No. 8, N-(4-{[(2Z,5Z)-5-(2,3-dihydro-1H-indol-1-ylmethylidene)-3-(furan-2-ylmethyl)-4-oxo-1,3-thiazolidin-2-ylidene]amino}phenyl)acetamide]: the EC50 in experiment [1] (setting [3]) was no more than 1000 nM. In addition, in experiment [1], the Emax lay within 50 to 100%.
Consider `CCNc1ccc(C#N)cc1/N=C1\S/C(=C\N(C)c2ccc(OC)cc2)C(=O)N1Cc1ccccc1` [No. 12, 4-(ethylamino)-3-{[(2Z,5Z)-5-({methyl[4-(methyloxy)phenyl]amino}methylidene)-4-oxo-3-(phenylmethyl)-1,3-thiazolidin-2-ylidene]amino} benzonitrile], for which, in experiment [2], the Emax lay within 40 to 50%, the IC50 is 300 to 500 nM and the EC50 is roughly 1000 nM.
Consider `CCNc1ccc(C(C)=O)cc1/N=C1\S/C(=C\c2ccccc2)C(=O)N1Cc1ccccc1` [No. 23], for which, in experiment [1] (setting [3]), the EC50 is no more than 1000 nM. This molecule showed an Emax in experiment [1] of 50 to 100%.
Take `CCNc1ccc(C(C)=O)cc1/N=C1\S/C(=C\N(C)Cc2ccccc2)C(=O)N1Cc1ccccc1` [No. 4, (2Z,5Z)-2-{[5-acetyl-2-(ethylamino)phenyl]imino}-5-{[methyl(phenylmethyl)amino]methylidene}-3-(phenylmethyl)-1,3-thiazolidin-4-one]: the EC50 in experiment [1] (setting [3]) is no more than 1000 nM. In experiment [1], this molecule registered an Emax of 50 to 100%. Further, in experiment [2], the Emax lay in the range of 40 to 50%, the IC50 was in the range of 300 to 500 nM and the EC50 was roughly 1000 nM.
As for `CCNc1ccc(C(C)=O)cc1/N=C1\S/C(=C\N(C)c2ccccc2)C(=O)N1Cc1ccccc1` [No. 2, (2Z,5Z)-2-{[5-acetyl-2-(ethylamino)phenyl]imino}-5-{[methyl(phenyl)amino]methylidene)-3-(phenylmethyl)-1,3-thiazolidin-4-one], the EC50 in experiment [1] (setting [3]) is no more than 1000 nM. For the same molecule, the Emax in experiment [1] lay in the range of 50 to 100%.
